Data published in patent publication US20170066717A1, “NEW PHENYLAZETIDINECARBOXYLATE OR -CARBOXAMIDE COMPOUNDS” (INVENTIVA, priority 2014, published 2017).

How the values were obtained:
NURR-1/RXRα = biological target: T1, NURR-1/RXRα (Homo sapiens, UniProt P19793); experiment: Transactivation test, NURR-1-Gal4/RXRα, luciferase reporter in Cos-7 cells; assay type: cell-based; details: for Emax: COS-7, induction level relative to reference XCT0135908 at 2×10^−5 M (=100%), read-out: hNurr1_RXRaFL Emax (%); for EC50: Cos-7 cells, NURR-1-Gal4/RXRα, luciferase reporter, read-out: hNurr1_RXRaFL EC50
T1 construct: expressed in transfected cells; host or cells: Cos-7 cells

[1] = tested on: dopaminergic neurons of primary culture of rat embryo mesencephalon treated with MPP+; experiment: Neuroprotection in primary culture of rat embryo mesencephalon treated with MPP+ (count of tyrosine hydroxylase expressing cells); assay type: cell-based; details: recombinant human BDNF 10 ng/mL = 100%, 2 days with MPP+
Outline: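 Rat embryo (E15) mesencephalon cultures, 5 days, then MPP+ with or without compound on day 6 for 2 days. Tyrosine hydroxylase-immunolabelled cells counted by image analysis; activity expressed as percent of recombinant human BDNF (10 ng/mL) reference, set at 100%.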

[2] = Plasma pharmacokinetics in mice after oral administration; assay type: in vivo; details: mouse, male C57/Bl6 mice, oral 10 mg/kg; for AUC: sampling 15 min to 7 h, log-linear trapezoidal method, read-out: AUCplasma; for Cmax: suspension in 1% methylcellulose/0.1% Poloxamer 188
Outline: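 Male C57/B16 mice (25-30 g, fed, 9 per dose) received 10 mg/kg by oral gavage as a suspension in 1% methylcellulose 400 cps/0.1% Poloxamer 188/water. Plasma was sampled at 15 min, 30 min, 1 h, 3 h and 7 h and quantified by LC-MS/MS after protein precipitation. Parameters were derived non-compartmentally, with AUC by the log-linear trapezoidal method.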

[3] = tested on: mice treated with 1-methyl-4-phenyl-1,2,3,6-tetrahydropyridine (MPTP); experiment: Functional activity in a model of mice treated with MPTP (striatal dopamine, TH mRNA in substantia nigra); assay type: in vivo; details: for action of MPTP (decrease in dopamine level in the striatum and in TH expression level in the substantia nigra): C57BL6/J mice, compound orally twice a day for 11 days, MPTP 20 mg/kg ip once a day for 5 days, FIGS. 1 and 2
Experimental: 3. Study of the Functional Activity in a Mouse Model
A third series of […] tests was carried out with the compounds according to the invention, for the purpose of verifying that the molecules indeed have the expected neuroprotective effect.
The compounds of examples 10 and 118 were tested on a model of mice treated with 1-methyl-4-phenyl-1,2,3,6-tetrahydropyridine (MPTP) in order to confirm their potential activity. MPTP is a neurotoxin which causes the permanent symptoms of Parkinson's disease by destroying the dopaminergic neurons in the substantia nigra. The following protocol: was used.
Male C57BL6/J mice, 10-12 weeks old at the beginning of the studies, were divided up into groups of 12 animals. The compounds wee administered orally, twice a day, for 11 days in total. The administration began 3 days before the treatment with the MPTP toxin at 20 mg/kg. The MPTP was administered once a day by intraperitoneal injection, for 5 days. The admistration of the compounds was continued during the 5 days of MPTP treatment and then for a further 3 days after the MPTP treatment. One group of mice received, orally, the carrier alone (solution of methylcellulose at 1%, 0.1% poloxamer). The annuals were eythanized after rhe final gavage and the striatum and the substantia nigra were removed. The dopamine was extracted from the striatum and the amount of dopamine (DA), expressed in ng per g of striatum (mean±SEM), was measured by high-performance liquid chromatography (HPLC) with electrochemical detection. The messenger RNAs were isolated from the substantia nigra, and the expression level of the mRNAs encoding tyrosine hydroxylase (TH) was measured by quantitative PCR.
The results obtained were reported in appended FIGS. 1 and 2.

T1 sequence (P19793 whole entry, the tested form may be a part): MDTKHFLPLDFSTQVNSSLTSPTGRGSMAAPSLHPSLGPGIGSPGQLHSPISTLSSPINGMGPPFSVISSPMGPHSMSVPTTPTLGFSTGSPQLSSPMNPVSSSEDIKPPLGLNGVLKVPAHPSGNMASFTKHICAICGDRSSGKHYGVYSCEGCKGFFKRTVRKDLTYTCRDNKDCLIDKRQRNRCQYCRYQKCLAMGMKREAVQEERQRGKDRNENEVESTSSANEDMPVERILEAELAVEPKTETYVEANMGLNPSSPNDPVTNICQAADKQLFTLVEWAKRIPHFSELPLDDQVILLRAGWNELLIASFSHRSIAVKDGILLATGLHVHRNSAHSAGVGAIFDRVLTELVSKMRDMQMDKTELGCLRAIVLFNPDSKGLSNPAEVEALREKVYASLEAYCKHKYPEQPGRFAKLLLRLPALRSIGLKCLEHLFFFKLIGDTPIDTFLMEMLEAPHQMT
T1 sequence (P43354 whole entry partner, the tested form may be a part): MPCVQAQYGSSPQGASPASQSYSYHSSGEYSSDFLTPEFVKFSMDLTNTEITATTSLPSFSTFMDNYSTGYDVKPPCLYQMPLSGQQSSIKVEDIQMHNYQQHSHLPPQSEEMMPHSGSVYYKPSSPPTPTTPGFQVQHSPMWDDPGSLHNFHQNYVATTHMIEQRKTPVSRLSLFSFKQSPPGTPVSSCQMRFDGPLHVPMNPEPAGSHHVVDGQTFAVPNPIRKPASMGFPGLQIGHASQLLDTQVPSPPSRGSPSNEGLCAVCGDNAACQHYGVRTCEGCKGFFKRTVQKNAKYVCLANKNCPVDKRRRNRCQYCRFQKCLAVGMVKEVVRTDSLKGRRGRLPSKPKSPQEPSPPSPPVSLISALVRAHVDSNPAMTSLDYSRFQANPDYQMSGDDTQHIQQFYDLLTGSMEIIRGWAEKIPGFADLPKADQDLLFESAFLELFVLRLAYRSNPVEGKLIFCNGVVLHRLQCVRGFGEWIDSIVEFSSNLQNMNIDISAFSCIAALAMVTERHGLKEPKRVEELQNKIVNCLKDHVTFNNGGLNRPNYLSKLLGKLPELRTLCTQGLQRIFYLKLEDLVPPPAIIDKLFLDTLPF
T1 sequence (P04386 1-147 partner limits assumed): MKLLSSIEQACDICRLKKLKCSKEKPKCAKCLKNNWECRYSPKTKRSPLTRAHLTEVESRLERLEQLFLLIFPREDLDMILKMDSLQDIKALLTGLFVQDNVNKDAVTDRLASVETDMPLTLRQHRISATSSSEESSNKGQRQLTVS

Structure (SMILES): CC1(C)CCC(C)(C)c2cc(-c3cccc(N4CC(C(=O)O)C4)c3)ccc21 [Example 10, 1-[5-(1,1,4,4-tetrametyltetralin-6-yl)phenyl]azetidine-3-carboxylic acid]
- Emax (NURR-1/RXRα): 84%
- EC50 (NURR-1/RXRα): 8 nM
- percentage of activity relative to the BDNF reference ([1]; compound 1 μM): 44%
- percentage of activity relative to the BDNF reference ([1]; compound 10 μM): 74%
- AUC [2]: 25700 ng·h/mL
- Cmax [2]: 8760 ng/mL
- action of MPTP (decrease in dopamine level in the striatum and in TH expression level in the substantia nigra) [3]: decrease the action of MPTP in a dose-dependent manner

Structure (SMILES): CC(C)CC1CN(c2cccc(N3CC(C(=O)O)C3)c2)c2ccc(C(F)(F)F)cc2O1 (stereo not drawn) [Example 118, 1-[3-[2-isobutyl-7-(trilfuoromethyl)-2,3-dihydro-1,4-benzoxazin-4-yl]phenyl]azetidine-3-carboxylic acid]
- Emax (NURR-1/RXRα): 83%
- EC50 (NURR-1/RXRα): 31 nM
- percentage of activity relative to the BDNF reference ([1]; compound 1 μM): 81%
- percentage of activity relative to the BDNF reference ([1]; compound 10 μM): 61%
- AUC [2]: 9820 ng·h/mL
- Cmax [2]: 4600 ng/mL
- action of MPTP (decrease in dopamine level in the striatum and in TH expression level in the substantia nigra) [3]: decrease the action of MPTP in a dose-dependent manner
- tyrosine hydroxylase (TH) expression level (mRNA, substantia nigra, quantitative PCR) ([3]; orally twice a day for 11 days, MPTP-treated mice): capable of re-establishing the tyrosine hydroxylase expression level in the brain
